Measured values as given in ChEMBL document CHEMBL1149743, “Linear diterpenes from the Caribbean sponge Myrmekioderma styx” (J Nat Prod, 1992).
In brackets after ≈: the same amount, converted by molar mass.

Assays:
[1] = (§1) Toxicity against Artemia salina after 24 hrs; format: organism-based; details: in vivo
[2] = test system: Artemia salina; experiment: as §1; format: organism-based; details: in vivo, 24 h

C=CC(C)(O)/C=C/C=C(\C)CC/C=C(\C)CC(=O)CC(C)C (centres undefined)
LC50 at 24 h [1]: 3 µg/mL (≈ 9.85 µM)

C=CC(C)(O)/C=C/C=C(\C)CC/C=C(\C)CCC=C(C)C (centres undefined)
Activity [2]: Toxic

C=CC(C)(O)/C=C/C=C(\C)CC/C=C(\C)CC(=O)C=C(C)C (centres undefined) [STYXENOL A]
LC50 at 24 h [1]: 154 µg/mL (≈ 509 µM)

C=CC(C)(O)/C=C/C=C(\C)CCC/C(C)=C\C(=O)C=C(C)C (centres undefined)
LC50 at 24 h [1]: 163 µg/mL (≈ 539 µM)
